Test results taken from US7612077B2, “Crystalline forms of the anti-cancer compound ZD1839” (Astrazeneca AB, priority 2002, dated 2009).

Legend:
[1] = stability of the crystalline physical form; type: physicochemical; conditions: solid crystalline form
[2] = stability in the presence of water / as aqueous suspension; type: physicochemical
Protocol: Form 5 ZD1839 trihydrate is a stable form of the compound of Formula I In particular, Form 5 ZD1839 trihydrate is very stable in the presence of water. For example, when Form 5 ZD1839 trihydrate is prepared as an aqueous suspension the resulting suspension is stable, whereas aqueous suspensions prepared using other forms of the compound of Formula I are prone to convert to Form 5 ZD1839 trihydrate during storage. In the case of aqueous suspensions of the compound of Formula I this can be problematic because the conversion of a less thermodynamically stable form to the Form 5 ZD1839 trihydrate can result in the growth of large crystals of the Form 5 ZD1839 trihydrate, thereby altering the particle size distribution in the suspension. […] Furthermore, if a variable mixture of two such forms of the compound of Formula I were to be present, the dissolution rate and bioavailability of the active compound(s) could be variable as a result of the different characteristics of the two forms.

SMILES | stability of crystalline physical form [1] | stability in the presence of water ([2]; in the presence of water) | stability of aqueous suspension ([2]; prepared as an aqueous suspension, during storage)
COc1cc2ncnc(Nc3ccc(F)c(Cl)c3)c2cc1OCCCN1CCOCC1 [Form 1 ZD1839 polymorph, 4-(3′-chloro-4′-fluoroanilino)-7-methoxy-6-(3-morpholinopropoxy)quinazoline] | highly stable |  | 
COc1cc2ncnc(Nc3ccc(F)c(Cl)c3)c2cc1OCCCN1CCOCC1 [Form 3 ZD1839 DMSO solvate, 4-(3′-chloro-4′-fluoroanilino)-7-methoxy-6-(3-morpholinopropoxy)quinazoline mono-solvate with dimethyl sulphoxide] | very stable |  | 
COc1cc2ncnc(Nc3ccc(F)c(Cl)c3)c2cc1OCCCN1CCOCC1 [Form 5 ZD1839 trihydrate, 4-(3′-chloro-4′-fluoroanilino)-7-methoxy-6-(3-morpholinopropoxy)quinazoline trihydrate] |  | very stable | stable
COc1cc2ncnc(Nc3ccc(F)c(Cl)c3)c2cc1OCCCN1CCOCC1 [Form 2 ZD1839 MeOH solvate, 4-(3′-chloro-4′-fluoroanilino)-7-methoxy-6-(3-morpholinopropoxy)quinazoline hemi-methanolate] | of sufficient stability |  | 
